Laboratory results taken from US9505709B2, “Compositions and methods relating to ionic salts of peptides” (Thetis Pharmaceuticals LLC, priority 2014, dated 2016).

How the values were obtained:
[1] = Stability analysis by 1H NMR of samples exposed to air and light; conditions: ambient temperature
Description: Stability analysis was performed using 1H NMR (400 MHz) with acetic acid-d4 at various time point (typically days 1, 14, 30 and 60) using samples exposed to air and light at ambient temperature (clear vials with no caps).

[2] = Oral pharmacokinetics (oral gavage), plasma free EPA or free DHA; type: in vivo, Sprague-Dawley rats; conditions: rat
Description: Experiments via Oral Gavage: Oral pharmacokinetic parameters of TP-212 (Lysyl-Lysine Bis-EPA), TP-312 (Lysyl-Lysine Bis-DHA), EPA-EE, EPA FFA and DHA FFA were determined in Sprague-Dawley rats. EPA-EE is 97% pure ethyl ester form of eicosapentaenoic acid. It is the principal polyunsaturated fatty acid in Vascepa, an Omega-3 compound approved in the U.S. for the treatment of severe hypertriglyceridemia. EPA FFA is 97% pure free fatty acid form of eicosapentaenoic acid and DHA FFA is 98% pure free fatty acid DHA. EPA FFA and DHA FFA are the two principal poly-unsaturated fatty acids in Epanova, an Omega-3 compound approved in the U.S. for the treatment of severe hypertriglyceridemia. The subject drugs were administered by oral gavage as an aqueous solution in de-ionized water to 6 Sprague-Dawley rats per group (3 males and 3 females). Rats were dosed at 40 mg/kg. Blood samples were obtained from each rat by jugular vein catheter. Samples were collected at pre-dose and at 0.25, 0.5, 1, 2, 4, 8, 12 and 18 hours post dose. Blood samples were centrifuged to separate red blood cells and the resulting plasma samples were analyzed for free EPA or free DHA. Free EPA or […] extracted from rat plasma with hexane at acidic condition without hydrolysis. Detection was by MS-MS monitoring of negative ion for EPA or DHA. Calculated pharmacokinetic values are mean values from 6 rats for each study drug.
(§1) For all figures and tables, the data are adjusted as follows for comparative purposes. First, the actual plasma levels are baseline adjusted. Thus, for each study arm, the pre-dose level (time=0) is subtracted from the actual plasma levels at each time point, with negative values adjusted to zero. Second, these baseline adjusted values are further adjusted to be molar dose equivalent on a comparative basis among the study arms with respect to EPA or DHA payload (i.e., as if equal amounts of free fatty acid EPA or DHA are administered in each study arm).

[3] = Intravenous injection pharmacokinetics, plasma free EPA or free DHA; type: in vivo, Sprague-Dawley rats; conditions: rat
Description: Experiments via Intravenous Injection: TP-212 and TP-312 were administered by intravenous injection (20 mg/kg) to Sprague-Dawley rats (n=6/group—3 male and 3 female), and plasma was obtained from serial blood samples taken from each animal at scheduled times ([…]). Blood samples were centrifuged to separate red blood cells and the resulting plasma samples were analyzed for free EPA or free DHA. Free EPA or free DHA was extracted from rat plasma with hexane at acidic condition without hydrolysis. Detection was by MS-MS monitoring of negative ion for EPA or DHA. Calculated pharmacokinetic values are mean values from 6 rats for each study drug.
as §1

[4] = tested on: Balb/C mice; experiment: Ocular irritation after topical dosing to the cornea (hyperemia, squinting, discharge, lid swelling); type: in vivo; conditions: for Hyperemia: 3 μL drop in each eye four times daily for 3 days
Description: In an embodiment where the ophthalmic formulation is an aqueous formulation, it has been determined in mice that certain formulations can be administered to the surface of the eye without producing irritation that would make them unsuitable for such application. Irritation parameters of TP-211-1, TP-212-1, TP-311-1 and TP-312-1 related to hyperemia, squinting, and discharge were determined in Balb/C mice. Mice were dosed topically to the cornea using a calibrated micropipette, with a 3 μL drop of treatment in each eye four times daily for 3 consecutive days at various concentrations.
TP-211-1 is Lysyl-lysine EPA. TP-212-1 is Lysyl-lysine bis-EPA. TP-311-1 is Lysyl-lysine DHA. TP-312-1 is Lysyl-lysine bis-DHA. The study drugs were prepared using phosphate buffered saline (PBS) to reach target concentrations ranging from 0.1% to 1.0%.
The animals were monitored for scratching at the eye or any other abnormal behavior post-dose. Ocular exams were conducted on Days 1 and 3 with use of a Micron III camera system to take high resolution videos of the right eye of each animal Clinical signs including but not limited to hyperemia, discharge, lid swelling, and squinting were evaluated by trained personnel who was masked as to group assignment. Each clinical sign was graded on a scale of 0-4, with the exception of lid swelling which was graded on a scale of 0-2. Scores were averaged and are expressed as the mean±SEM for each group. Statistical significance was assessed between the treatment arms and the vehicle group. Any significance is noted by asterisks (*=p<0.05, **=p<0.01, ***=p<0.001).

[5] = oral gavage 40 mg/kg, molar dose equivalent, baseline adjusted
[6] = intravenous injection 20 mg/kg, molar dose equivalent, baseline adjusted
[7] = 0.5% concentration in PBS, topical to cornea
[8] = 1.0% concentration in PBS, topical to cornea

CC/C=C\C/C=C\C/C=C\C/C=C\C/C=C\CCCC(=O)O.CC/C=C\C/C=C\C/C=C\C/C=C\C/C=C\CCCC(=O)O.NCCCC[C@H](NC(=O)[C@@H](N)CCCCN)C(=O)O [Compound 2, (L,L) Lysyl-lysine bis-EPA]
Stability by NMR (amount of sample remaining relative to original sample) ([1]; Day 3): 1 (1 = >95%) | Stability by NMR (amount of sample remaining relative to original sample) ([1]; Day 14): 1 (1 = >95%) | Stability by NMR (amount of sample remaining relative to original sample) ([1]; Day 30): 1 (1 = >95%) | Stability by NMR (amount of sample remaining relative to original sample) ([1]; Day 60): 1 (1 = >95%) | Tmax (free EPA) ([2]; oral gavage 40 mg/kg): 30 min | Plasma level of free EPA ([2]; oral gavage 40 mg/kg, 0 h (pre-dose), molar dose equivalent, baseline adjusted): 0 ng/mL | Plasma level of free EPA ([2]; oral gavage 40 mg/kg, 0.25 h (15 min), molar dose equivalent, baseline adjusted): 300 ng/mL | Plasma level of free EPA ([2]; oral gavage 40 mg/kg, 0.5 h (30 min), molar dose equivalent, baseline adjusted): 9500 ng/mL | Plasma level of free EPA ([2]; oral gavage 40 mg/kg, 1 h (60 min), molar dose equivalent, baseline adjusted): 3900 ng/mL | Plasma level of free EPA ([2]; oral gavage 40 mg/kg, 2 h (120 min), molar dose equivalent, baseline adjusted): 3200 ng/mL | Plasma level of free EPA ([2]; oral gavage 40 mg/kg, 4 h (240 min), molar dose equivalent, baseline adjusted): 1500 ng/mL | Plasma level of free EPA ([2]; oral gavage 40 mg/kg, 8 h, molar dose equivalent, baseline adjusted): 600 ng/mL | Plasma level of free EPA ([2]; oral gavage 40 mg/kg, 12 h, molar dose equivalent, baseline adjusted): 0 ng/mL | Plasma level of free EPA ([2]; oral gavage 40 mg/kg, 18 h, molar dose equivalent, baseline adjusted): 0 ng/mL | AUC 0-1 hrs (free EPA) [2, 5]: 4600 ng·h/mL | AUC 0-4 hrs (free EPA) [2, 5]: 12800 ng·h/mL | AUC 0-18 hrs (free EPA) [2, 5]: 18300 ng·h/mL | Cmax (free EPA) [2, 5]: 9500 ng/mL | AUC over 18 hours (free EPA), times greater than EPA-EE ([2]; oral gavage): approximately 2.6 times | AUC over 18 hours (free EPA), times greater than EPA-FFA ([2]; oral gavage): ~1.8 times | Cmax (free EPA), times greater than EPA-EE ([2]; oral gavage): approximately 8.9 times | Cmax (free EPA), times greater than EPA-FFA ([2]; oral gavage): ~7.4 times | Tmax (free EPA) ([3]; intravenous injection 20 mg/kg): 1 min | Plasma level of free EPA ([3]; intravenous injection 20 mg/kg, 0 min, molar dose equivalent, baseline adjusted): 0 ng/mL | Plasma level of free EPA ([3]; intravenous injection 20 mg/kg, 1 min, molar dose equivalent, baseline adjusted): 34500 ng/mL | Plasma level of free EPA ([3]; intravenous injection 20 mg/kg, 5 min, molar dose equivalent, baseline adjusted): 6600 ng/mL | Plasma level of free EPA ([3]; intravenous injection 20 mg/kg, 10 min, molar dose equivalent, baseline adjusted): 6400 ng/mL | Plasma level of free EPA ([3]; intravenous injection 20 mg/kg, 15 min, molar dose equivalent, baseline adjusted): 11400 ng/mL | Plasma level of free EPA ([3]; intravenous injection 20 mg/kg, 30 min, molar dose equivalent, baseline adjusted): 8800 ng/mL | Plasma level of free EPA ([3]; intravenous injection 20 mg/kg, 60 min, molar dose equivalent, baseline adjusted): 4600 ng/mL | Plasma level of free EPA ([3]; intravenous injection 20 mg/kg, 120 min, molar dose equivalent, baseline adjusted): 2300 ng/mL | Plasma level of free EPA ([3]; intravenous injection 20 mg/kg, 240 min, molar dose equivalent, baseline adjusted): 1800 ng/mL | AUC 0-1 hrs (free EPA) [3, 6]: 8300 ng·h/mL | AUC 0-4 hrs (free EPA) [3, 6]: 15900 ng·h/mL | Cmax (free EPA) [3, 6]: 34500 ng/mL | AUC over 1 hour (free EPA), times greater than EPApo ([3]; intravenous vs oral gavage): ~13.4 times | AUC over 1 hour (free EPA), times greater than TP-212po ([3]; intravenous vs oral gavage): approximately 1.8 times | AUC over 4 hours (free EPA), times greater than EPApo ([3]; intravenous vs oral gavage): ~5.1 times | AUC over 4 hours (free EPA), times greater than TP-212po ([3]; intravenous vs oral gavage): approximately 1.2 times | Cmax (free EPA), times greater than EPA-FFApo ([3]; intravenous vs oral gavage): ~27 times | Cmax (free EPA), times greater than TP-212po ([3]; intravenous vs oral gavage): approximately 3.6 times | Hyperemia ([4]; 0.5% concentration in PBS): increase in hyperemia (but not squinting) after the first dose | Squinting [4, 7]: not squinting | Hyperemia ([4]; 1.0% concentration in PBS): increase in hyperemia (but not squinting) after the first dose | Squinting [4, 8]: not squinting | Irritation, overall conclusion ([4]; concentrations of less than 1.0%, topical to cornea, repeat dosing): may cause some initial irritation upon the very first installation, but the animals acclimated well to repeat dosing | Hyperemia at last dose / final evaluation ([4]; concentrations that showed an initial increase or all tested, last dose / final evaluation (Day 3)): returned to baseline levels by the final evaluation

CC/C=C\C/C=C\C/C=C\C/C=C\C/C=C\C/C=C\CCC(=O)O.NCCCC[C@H](NC(=O)[C@@H](N)CCCCN)C(=O)O [Compound 3, (L,L) Lysyl lysine DHA (mono)]
Stability by NMR (amount of sample remaining relative to original sample) ([1]; Day 3): 1 (1 = >95%) | Stability by NMR (amount of sample remaining relative to original sample) ([1]; Day 14): 1 (1 = >95%) | Stability by NMR (amount of sample remaining relative to original sample) ([1]; Day 30): 1 (1 = >95%) | Stability by NMR (amount of sample remaining relative to original sample) ([1]; Day 60): 1 (1 = >95%) | Hyperemia ([4]; 0.5% concentration in PBS): did not cause any increase in hyperemia or squinting throughout | Squinting [4, 7]: did not cause any increase in hyperemia or squinting throughout | Hyperemia ([4]; 1.0% concentration in PBS): elevated hyperemia after the first dose administration | Squinting [4, 8]: no increase in squinting levels | Concentration at which not irritating / well tolerated ([4]; topical to cornea four times daily for 3 days): less than 1.0%
